Assay results as given in article PMC10243163, “A frog‐derived antimicrobial peptide as a potential anti‐biofilm agent in combating Staphylococcus aureus skin infection” (Journal of Cellular and Molecular Medicine, 2023).
Converted amounts (≈) assume the structure as drawn. Read-outs that look alike come from different tables or passages of the source. Positions of bridges follow the written chain, without caps; N, C: chain ends. Residues, ends and D or L forms follow the SMILES beside them. No end group written: not given here.

What was measured:
MRSA NCTC 12493 [1] = experiment: Ex vivo porcine skin infection model; parameters: species or system Methicillin‐resistant S. aureus; conditions: vancomycin 8 μM, 4 h
Method: The antibacterial efficacy of OG9 and OG9c‐De‐NH2 was further evaluated in an ex vivo porcine skin model, as reported.[27] The porcine skin was shaved and cleaned with 70% ethanol and dd H2O. The polyethylene tubing was glued to the cleaned skin surface with cyanoacrylate glue. Exponential or persister cells were inoculated to infect each skin sample. After 15 min of incubation at 37°C, each skin sample was treated with peptides at concentrations of 1 × or 10 × MIC or vancomycin (8 μM). After another 4 h of incubation, each tubing well was washed with PBS. Ten microliters of the mixture in each well was diluted with PBS buffer and spotted on the agar plate. The number of viable bacteria cells was counted after overnight incubation. The experiments were conducted in three independent runs.

S. aureus ATCC 6538 [2] = assay type: cell-based, Staphylococcus aureus
Method: (§1) Antimicrobial assays were conducted using standard broth micro‐dilutions, as mentioned previously.[11] Gram‐positive bacteria S. aureus (ATCC 6538), Methicillin‐resistant S. aureus (MRSA; NCTC 12493), […] (NCTC 12697), Gram‐negative bacteria Escherichia coli (ATCC 8739), Klebsiella pneumoniae (ATCC 43816), Pseudomonas aeruginosa (ATCC 9027), Acinetobacter baumannii (ATCC BAA 747), and yeast, Candida albicans (ATCC 10231) were used in the test. The experiments were conducted in three independent runs.

MRSA NCTC 12493 [3] = assay type: cell-based, Methicillin‐resistant S. aureus
Method: as §1

E. faecalis NCTC 12697 [4] = assay type: cell-based
E. coli ATCC 8739 [5] = assay type: cell-based, Escherichia coli
Method: as §1

K. pneumoniae ATCC 43816 = assay type: cell-based, Klebsiella pneumoniae
Method: as §1

P. aeruginosa ATCC 9027 [6] = assay type: cell-based, Pseudomonas aeruginosa
Method: as §1

C. albicans ATCC 10231 = assay type: cell-based, Candida albicans
Method: as §1

[7] = test system: Gram‐positive and Gram‐negative test bacteria; assay type: cell-based
Method: as §1

horse erythrocytes = experiment: Haemolytic activity; assay type: cell-based; conditions: 128 μM peptide; horse erythrocytes 2% v/v, 37°C, 2 h; 0.1% Triton X‐100 positive control; absorbance 570 nm; three independent runs
Method: The haemolytic activity of peptides was conducted using horse erythrocytes (2%, v/v). Peptide solutions were mixed with washed horse erythrocyte suspension at 37°C for 2 h. Triton X‐100 (0.1%) was used as a positive control. The mixture was then centrifuged at 930 g for 5 min. The absorbance of the supernatants was detected at 570 nm. The haemolysis rate was calculated using the formula: Haemolysis%=Sample group−negative group/positive group−negative group×100%.
This experiment was performed in three independent runs.

[8] = test system: Gram‐positive and Gram‐negative test bacteria; assay type: cell-based; conditions: geometric mean of MICs against the three Gram‐negative strains
S. aureus ATCC 6538 [9] = assay type: cell-based, Staphylococcus aureus; conditions: ATCC 6538, 24 h
Method: (§2) Peptide solutions were first mixed with bacterial cultures (5 × 10^5 CFU/mL) and incubated at 37°C for 24 h. The planktonic bacterial cells were gently removed by washing with PBS the next day, and methanol was utilised to fix the biofilm. Crystal violet (0.1% v/v), PBS and acetic acid (30%, v/v) were subsequently used to stain biofilm, remove remaining stains and re‐dissolve stains, respectively. The absorbance was determined at 595 nm. The experiments were conducted in three independent runs.

MRSA NCTC 12493 [10] = assay type: cell-based, Methicillin‐resistant S. aureus; conditions: NCTC 12493, 24 h
Method: as §2

E. faecalis NCTC 12697 [11] = assay type: cell-based; conditions: NCTC 12697, 24 h
Method: as §2

E. coli ATCC 8739 [12] = assay type: cell-based, Escherichia coli; conditions: ATCC 8739, 24 h
Method: as §2

P. aeruginosa ATCC 9027 [13] = assay type: cell-based, Pseudomonas aeruginosa; conditions: ATCC 9027, 24 h
Method: as §2

[14] = geometric mean of MICs against all test bacteria
[15] = geometric mean of MICs against the three Gram‐positive strains

Molecule | MBC (S. aureus ATCC 6538 [2]) | MIC (S. aureus ATCC 6538 [2]) [µM] | MBC (MRSA NCTC 12493 [3]) [µM] | MIC (MRSA NCTC 12493 [3]) [µM] | MBC (E. faecalis NCTC 12697 [4]) [µM] | MIC (E. faecalis NCTC 12697 [4]) [µM] | MBC (E. coli ATCC 8739 [5]) [µM] | MIC (E. coli ATCC 8739 [5]) [µM] | MBC (K. pneumoniae ATCC 43816) [µM] | MIC (K. pneumoniae ATCC 43816) [µM] | MBC (P. aeruginosa ATCC 9027 [6]) [µM] | MIC (P. aeruginosa ATCC 9027 [6]) [µM] | MBC (C. albicans ATCC 10231) [µM] | MIC (C. albicans ATCC 10231) [µM] | GM MIC, total bacteria [7, 14] [µM] | GM MIC, G+ [7, 15] [µM] | Haemolysis (horse erythrocytes) | GM MIC, G− [8] [µM] | further results
CN[C@H](CC(C)C)C(=O)N[C@H]1C(=O)N[C@@H](CC(N)=O)C(=O)N[C@H]2C(=O)N[C@H]3C(=O)N[C@H](C(=O)N[C@H](C(=O)O)c4cc(O)cc(O)c4-c4cc3ccc4O)[C@H](O)c3ccc(c(Cl)c3)Oc3cc2cc(c3O[C@@H]2O[C@H](CO)[C@@H](O)[C@H](O)[C@H]2O[C@H]2C[C@](C)(N)[C@H](O)[C@H](C)O2)Oc2ccc(cc2Cl)[C@H]1O [Vancomycin] |  |  |  |  |  |  |  |  |  |  |  |  |  |  |  |  |  |  | Ex vivo effect on exponential MRSA cells (MRSA NCTC 12493 [1]): weak inhibiting effect
FPLIARLAAKFLPKIL [OG9c‐De] | 16 µM | 16 | 16 | 16 | 64 | 64 | 16 | 16 | 32 | 32 | 64 | 16 | 16 | 16 |  |  |  |  | GM MIC, G+ [7]: 25.4 µM; GM MIC, G− [7]: 20.2 µM; GM MIC, total bacteria [7]: 22.6 µM
CC[C@H](C)[C@@H]1NC(=O)[C@H](C)NC(=O)[C@@H](NC(=O)[C@H](CC(C)C)NC(=O)[C@@H](NC(=O)[C@H](CCCCN)NC(=O)[C@@H]2CCCN2C(=O)[C@H](CC(C)C)NC(=O)[C@H](Cc2ccccc2)NC(=O)[C@H](CC(N)=O)NC(=O)[C@H](C)NC(=O)[C@H](C)NC(=O)[C@H](CC(C)C)NC(=O)CNC(=O)[C@H](C)NC(=O)[C@@H](NC(=O)[C@H](CC(C)C)NC(=O)[C@@H]2CCCN2C(=O)[C@@H](N)Cc2ccccc2)[C@@H](C)CC)[C@@H](C)CC)CSSC[C@@H](C(=O)O)NC(=O)[C@H](CCCCN)NC(=O)[C@H](CCCNC(=N)N)NC(=O)[C@H](C)NC1=O [OG9a] (H-FPLIAGLAANFLPKILCAIARKC-OH; disulfide 17-23) | 8 µM (≈ 19.5 µg/mL) | 4 (≈ 9.77 µg/mL) | 16 (≈ 39.1 µg/mL) | 16 (≈ 39.1 µg/mL) | 16 (≈ 39.1 µg/mL) | 16 (≈ 39.1 µg/mL) | 8 (≈ 19.5 µg/mL) | 8 (≈ 19.5 µg/mL) | 16 (≈ 39.1 µg/mL) | 16 (≈ 39.1 µg/mL) | > 128 | > 128 | > 128 | > 128 | 20.2 | 10.1 | 90% | 40.3 | 
FPLIARLAAKFLPKIL-NH2 [OG9c‐De‐NH2] | 2/2 μM |  | 2 | 2 | 8 | 8 | 2 | 2 | 4 | 4 | 8 | 8 | 16 | 16 | 3.6 | 3.2 |  | 4 | MBIC (S. aureus ATCC 6538 [9]): 1 µM; MBIC (MRSA NCTC 12493 [10]): 1 µM; MBIC (E. faecalis NCTC 12697 [11]): 16 µM; MBIC (E. coli ATCC 8739 [12]): 16 µM; MBIC (P. aeruginosa ATCC 9027 [13]): 64 µM
FPLIAGLAANFLPKIL-NH2 [OG9‐De‐NH2] | > 128 µM | > 128 | > 128 | > 128 | > 128 | > 128 | > 128 | > 128 | > 128 | > 128 | > 128 | > 128 | > 128 | > 128 |  |  | no apparent haemolysis |  | 
FPLIAGLAANFLPKIL [OG9‐De] | > 128 µM | > 128 | > 128 | > 128 | > 128 | > 128 | > 128 | > 128 | > 128 | > 128 | > 128 | > 128 | > 128 | > 128 |  |  | no apparent haemolysis |  | 
CC[C@H](C)[C@@H]1NC(=O)CNC(=O)[C@@H](NC(=O)[C@H](CC(C)C)NC(=O)[C@@H](NC(=O)[C@H](CCCCN)NC(=O)[C@@H]2CCCN2C(=O)[C@H](CC(C)C)NC(=O)[C@H](Cc2ccccc2)NC(=O)[C@H](CCCCN)NC(=O)[C@H](C)NC(=O)[C@H](C)NC(=O)[C@H](CC(C)C)NC(=O)[C@H](CCCNC(=N)N)NC(=O)[C@H](C)NC(=O)[C@@H](NC(=O)[C@H](CC(C)C)NC(=O)[C@@H]2CCCN2C(=O)[C@@H](N)Cc2ccccc2)[C@@H](C)CC)[C@@H](C)CC)CSSC[C@@H](C(=O)O)NC(=O)[C@H](CCCCN)NC(=O)[C@H](CC(N)=O)NC(=O)[C@H](C)NC1=O [OG9c] (H-FPLIARLAAKFLPKILCGIANKC-OH; disulfide 17-23) | 4 µM (≈ 10 µg/mL) | 4 (≈ 10 µg/mL) | 8 (≈ 20 µg/mL) | 8 (≈ 20 µg/mL) | 16 (≈ 40 µg/mL) | 16 (≈ 40 µg/mL) | 4 (≈ 10 µg/mL) | 4 (≈ 10 µg/mL) | 8 (≈ 20 µg/mL) | 8 (≈ 20 µg/mL) | 16 (≈ 40 µg/mL) | 16 (≈ 40 µg/mL) | 64 (≈ 160 µg/mL) | 64 (≈ 160 µg/mL) |  |  |  |  | GM MIC, G+ [7]: 8/8/8 μM; GM MIC, G− [7]: 8/8/8 μM; GM MIC, total bacteria [7]: 8/8/8 μM
CC[C@H](C)[C@@H]1NC(=O)[C@H](C)NC(=O)[C@@H](NC(=O)[C@H](CC(C)C)NC(=O)[C@@H](NC(=O)[C@H](CCCCN)NC(=O)[C@@H]2CCCN2C(=O)[C@H](CC(C)C)NC(=O)[C@H](Cc2ccccc2)NC(=O)[C@H](CC(N)=O)NC(=O)[C@H](C)NC(=O)[C@H](CCCCN)NC(=O)[C@H](CC(C)C)NC(=O)CNC(=O)[C@H](C)NC(=O)[C@@H](NC(=O)[C@H](CC(C)C)NC(=O)[C@@H]2CCCN2C(=O)[C@@H](N)Cc2ccccc2)[C@@H](C)CC)[C@@H](C)CC)CSSC[C@@H](C(=O)O)NC(=O)[C@H](CCCCN)NC(=O)[C@H](CCCNC(=N)N)NC(=O)[C@H](C)NC1=O [OG9b] (H-FPLIAGLKANFLPKILCAIARKC-OH; disulfide 17-23) | 128 µM (≈ 320 µg/mL) | 64 (≈ 160 µg/mL) | > 128 | > 128 | > 128 | > 128 | 8 (≈ 20 µg/mL) | 8 (≈ 20 µg/mL) | 16 (≈ 40 µg/mL) | 16 (≈ 40 µg/mL) | 64 (≈ 160 µg/mL) | 32 (≈ 80 µg/mL) | > 128 | > 128 | 50.8 | 161.3 | 50% | 16 | 
